Publication PMC12668310, “High‐Throughput Synthesis and Screening of a Cyanimide Library Identifies Selective Inhibitors of ISG15‐Specific Protease mUSP18” (Angewandte Chemie (International Ed. in English), 2025)

Key:
Assay in all cases: High-throughput screening, Ub-RhoMP, single dose 1.25 µM
Format in all cases: biochemical
[1] = molecular target: USP16 (Homo sapiens, UniProt Q9Y5T5); design: (22-823); His-tag (N); made in house; details: for %inhibition USP16: crude in-plate synthesized compound, 1.25 µM assuming full conversion; for BB %inhibition USP16: individual amine building block (plate NCN-5)
USP16, sequence (Q9Y5T5 22-823): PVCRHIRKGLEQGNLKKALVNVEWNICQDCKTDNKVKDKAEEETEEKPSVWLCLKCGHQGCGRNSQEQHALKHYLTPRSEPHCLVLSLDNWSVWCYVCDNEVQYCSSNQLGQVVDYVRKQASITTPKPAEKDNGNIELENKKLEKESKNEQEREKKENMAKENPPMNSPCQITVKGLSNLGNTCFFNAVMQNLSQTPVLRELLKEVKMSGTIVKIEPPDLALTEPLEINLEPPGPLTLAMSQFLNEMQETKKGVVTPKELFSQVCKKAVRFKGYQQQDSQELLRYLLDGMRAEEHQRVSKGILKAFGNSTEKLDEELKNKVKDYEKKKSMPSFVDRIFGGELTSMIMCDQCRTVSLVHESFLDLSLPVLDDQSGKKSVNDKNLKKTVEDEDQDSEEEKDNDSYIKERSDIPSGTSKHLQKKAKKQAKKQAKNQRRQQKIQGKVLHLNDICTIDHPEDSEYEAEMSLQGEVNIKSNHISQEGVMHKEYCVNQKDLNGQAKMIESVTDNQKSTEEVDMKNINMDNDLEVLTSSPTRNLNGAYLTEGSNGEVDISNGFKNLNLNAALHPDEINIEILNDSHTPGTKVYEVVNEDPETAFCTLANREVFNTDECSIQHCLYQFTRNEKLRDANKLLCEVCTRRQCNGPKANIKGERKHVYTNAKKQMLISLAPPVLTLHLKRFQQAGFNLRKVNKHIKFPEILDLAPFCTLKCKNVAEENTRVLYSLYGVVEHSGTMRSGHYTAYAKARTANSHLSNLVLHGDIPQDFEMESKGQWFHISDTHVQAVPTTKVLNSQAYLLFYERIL
Procedure: (§1) Since the in‐plate synthesis was conducted in 1536‐well Echo plates, the compounds could readily be transferred from these plates into 1536‐well assay plates using acoustic liquid dispensing (Figure 2a) and subjected to HTS. We screened the whole 7536 compound library against a panel of twelve enzymes, including three DUBs from the UCH family, two DUBs from the OTU family, five DUBs from the USP family, plus ISG15 protease USP18, and SUMO protease SENP1. Each compound was tested at a single dose of 1.25 µM, assuming full conversion (10 mM in DMSO of the formed products) during the in‐plate synthesis, using the fluorogenic assay described above. […] The compounds are sorted by the amine building blocks (BB1‐16), and within each BB, sorted by carboxylic acid (CA1‐471), thereby providing a comprehensive and systematic overview of the overall inhibition by each BB and CA combination. Some interesting patterns can be obtained from this map. […] Indeed, BB10 is the privileged scaffold for UCHL1 as it originates from UCHL1 inhibitor 5 (Figure 1). […] On the other hand, OTUD1 and USP32 show a much higher hit rate, and this is even more pronounced for USP30 and ISG15 protease mUSP18, each showing many active compounds distributed over several BB's.
(§2) Purified recombinant enzymes used in this study
(§3) High-throughput screening
(§4) The screens were performed at room temperature in “flat bottom, non-treated, black […]
(§5) µM. The compounds (10 nL each) were transferred from the 1 mM daughter plates to the […]
(§6) Four wells containing DMSO
(§7) (10 nL) and four wells containing NEM (10 mM final concentration) were used in each plate […]
(§8) solution (1.33x final concentration) was added to each well, followed by incubation for 30 min.
(§9) Next, 2 µL of a substrate solution (4x final concentration) was added to each well (Ub-RhoMP[2]
(§10) After 1h or 2h incubation the
(§11) The percentage inhibition was calculated for each well using the […]
(§12) Where FIx is the fluorescence intensity of each well, FIpos is the average fluorescence intensity of the positive (NEM) control wells, and FIneg is the average fluorescence intensity of the negative (DMSO) control wells.

[2] = molecular target: T1, UCHL3 (Homo sapiens, UniProt P15374); details: for %inhibition UCHL3: crude in-plate synthesized compound, 1.25 µM assuming full conversion; for inhibition at 1.25 µM: individual amine building block (plate NCN-5), read-out: BB %inhibition UCHL3
T1 construct: (1-230); made in house
T1 sequence (P15374 1-230): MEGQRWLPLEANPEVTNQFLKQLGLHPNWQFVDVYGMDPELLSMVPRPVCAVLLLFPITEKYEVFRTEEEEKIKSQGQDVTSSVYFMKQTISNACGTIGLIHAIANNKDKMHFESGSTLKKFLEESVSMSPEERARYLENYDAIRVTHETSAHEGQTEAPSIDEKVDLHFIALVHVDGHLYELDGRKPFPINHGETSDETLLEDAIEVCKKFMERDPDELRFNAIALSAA
Procedure: as §1, §2, §3, §4, §5, §6, §7, §8, §9, §10, §11, §12

[3] = molecular target: T2, UCHL1 (Homo sapiens, UniProt P09936); details: for %inhibition UCHL1: crude in-plate synthesized compound, 1.25 µM assuming full conversion; for inhibition at 1.25 µM: individual amine building block (plate NCN-5), read-out: BB %inhibition UCHL1
T2 construct: (1-223); made in house
T2 sequence (P09936 1-223): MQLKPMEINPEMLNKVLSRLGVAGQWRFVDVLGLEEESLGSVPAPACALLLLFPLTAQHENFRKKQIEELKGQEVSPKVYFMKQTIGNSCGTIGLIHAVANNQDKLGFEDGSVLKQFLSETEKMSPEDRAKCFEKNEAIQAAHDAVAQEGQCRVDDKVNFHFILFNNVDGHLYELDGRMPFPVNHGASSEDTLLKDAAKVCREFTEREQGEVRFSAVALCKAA
Procedure: as §1, §2, §3, §4, §5, §6, §7, §8, §9, §10, §11, §12

[4] = molecular target: T3, USP32 (Homo sapiens, UniProt Q8NFA0); details: for %inhibition USP32: crude in-plate synthesized compound, 1.25 µM assuming full conversion; for inhibition at 1.25 µM: individual amine building block (plate NCN-5), read-out: BB %inhibition USP32
T3 construct: (1-1604); His-tag (N); made in house
T3 sequence (Q8NFA0 whole entry): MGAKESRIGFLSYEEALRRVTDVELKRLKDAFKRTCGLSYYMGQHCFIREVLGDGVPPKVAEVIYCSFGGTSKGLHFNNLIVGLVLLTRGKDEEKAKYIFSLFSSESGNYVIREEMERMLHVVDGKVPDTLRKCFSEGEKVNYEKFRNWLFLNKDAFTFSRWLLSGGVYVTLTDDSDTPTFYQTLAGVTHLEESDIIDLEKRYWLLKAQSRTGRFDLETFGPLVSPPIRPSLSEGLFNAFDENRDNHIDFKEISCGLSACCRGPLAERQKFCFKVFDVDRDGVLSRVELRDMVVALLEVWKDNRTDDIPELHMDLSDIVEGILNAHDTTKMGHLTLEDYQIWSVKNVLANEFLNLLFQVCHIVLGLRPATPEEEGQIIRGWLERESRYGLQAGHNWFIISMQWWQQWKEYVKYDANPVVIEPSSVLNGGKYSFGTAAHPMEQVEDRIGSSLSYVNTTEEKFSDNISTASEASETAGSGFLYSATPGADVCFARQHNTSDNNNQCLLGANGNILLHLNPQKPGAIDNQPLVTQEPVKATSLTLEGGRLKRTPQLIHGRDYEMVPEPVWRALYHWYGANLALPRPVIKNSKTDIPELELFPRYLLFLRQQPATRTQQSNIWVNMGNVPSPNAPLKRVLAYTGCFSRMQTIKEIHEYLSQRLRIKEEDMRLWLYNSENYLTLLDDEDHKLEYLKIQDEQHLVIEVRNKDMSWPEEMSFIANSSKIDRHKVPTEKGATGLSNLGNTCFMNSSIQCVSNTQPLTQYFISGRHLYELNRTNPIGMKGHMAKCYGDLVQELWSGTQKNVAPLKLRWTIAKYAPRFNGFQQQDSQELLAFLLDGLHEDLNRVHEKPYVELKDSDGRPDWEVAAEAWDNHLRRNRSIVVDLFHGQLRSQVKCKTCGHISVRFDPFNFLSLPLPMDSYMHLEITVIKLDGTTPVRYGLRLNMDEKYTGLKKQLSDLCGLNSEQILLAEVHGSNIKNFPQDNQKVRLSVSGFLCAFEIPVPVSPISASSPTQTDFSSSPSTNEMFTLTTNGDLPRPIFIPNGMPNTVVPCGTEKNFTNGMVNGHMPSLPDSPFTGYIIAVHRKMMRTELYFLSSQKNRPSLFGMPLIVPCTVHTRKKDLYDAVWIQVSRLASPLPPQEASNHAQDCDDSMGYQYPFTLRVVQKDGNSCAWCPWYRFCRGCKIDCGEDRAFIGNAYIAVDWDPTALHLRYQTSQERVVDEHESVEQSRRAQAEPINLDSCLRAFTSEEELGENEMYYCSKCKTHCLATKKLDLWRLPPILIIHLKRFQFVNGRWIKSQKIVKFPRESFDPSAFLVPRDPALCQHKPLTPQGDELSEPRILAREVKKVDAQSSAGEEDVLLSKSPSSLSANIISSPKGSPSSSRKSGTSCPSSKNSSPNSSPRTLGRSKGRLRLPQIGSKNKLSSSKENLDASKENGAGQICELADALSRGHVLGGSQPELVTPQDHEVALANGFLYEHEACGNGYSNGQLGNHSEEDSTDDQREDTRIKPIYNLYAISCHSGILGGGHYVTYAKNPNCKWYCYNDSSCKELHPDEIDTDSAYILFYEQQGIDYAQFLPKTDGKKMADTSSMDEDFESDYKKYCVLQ
Procedure: as §1, §2, §3, §4, §5, §6, §7, §8, §9, §10, §11, §12

[5] = molecular target: T4, USP24 (Homo sapiens, UniProt Q9UPU5); details: for %inhibition USP24: crude in-plate synthesized compound, 1.25 µM assuming full conversion; for inhibition at 1.25 µM: individual amine building block (plate NCN-5), read-out: BB %inhibition USP24
T4 construct: (1-2620); His10; purchased Biotechne E-616
T4 sequence (Q9UPU5 whole entry): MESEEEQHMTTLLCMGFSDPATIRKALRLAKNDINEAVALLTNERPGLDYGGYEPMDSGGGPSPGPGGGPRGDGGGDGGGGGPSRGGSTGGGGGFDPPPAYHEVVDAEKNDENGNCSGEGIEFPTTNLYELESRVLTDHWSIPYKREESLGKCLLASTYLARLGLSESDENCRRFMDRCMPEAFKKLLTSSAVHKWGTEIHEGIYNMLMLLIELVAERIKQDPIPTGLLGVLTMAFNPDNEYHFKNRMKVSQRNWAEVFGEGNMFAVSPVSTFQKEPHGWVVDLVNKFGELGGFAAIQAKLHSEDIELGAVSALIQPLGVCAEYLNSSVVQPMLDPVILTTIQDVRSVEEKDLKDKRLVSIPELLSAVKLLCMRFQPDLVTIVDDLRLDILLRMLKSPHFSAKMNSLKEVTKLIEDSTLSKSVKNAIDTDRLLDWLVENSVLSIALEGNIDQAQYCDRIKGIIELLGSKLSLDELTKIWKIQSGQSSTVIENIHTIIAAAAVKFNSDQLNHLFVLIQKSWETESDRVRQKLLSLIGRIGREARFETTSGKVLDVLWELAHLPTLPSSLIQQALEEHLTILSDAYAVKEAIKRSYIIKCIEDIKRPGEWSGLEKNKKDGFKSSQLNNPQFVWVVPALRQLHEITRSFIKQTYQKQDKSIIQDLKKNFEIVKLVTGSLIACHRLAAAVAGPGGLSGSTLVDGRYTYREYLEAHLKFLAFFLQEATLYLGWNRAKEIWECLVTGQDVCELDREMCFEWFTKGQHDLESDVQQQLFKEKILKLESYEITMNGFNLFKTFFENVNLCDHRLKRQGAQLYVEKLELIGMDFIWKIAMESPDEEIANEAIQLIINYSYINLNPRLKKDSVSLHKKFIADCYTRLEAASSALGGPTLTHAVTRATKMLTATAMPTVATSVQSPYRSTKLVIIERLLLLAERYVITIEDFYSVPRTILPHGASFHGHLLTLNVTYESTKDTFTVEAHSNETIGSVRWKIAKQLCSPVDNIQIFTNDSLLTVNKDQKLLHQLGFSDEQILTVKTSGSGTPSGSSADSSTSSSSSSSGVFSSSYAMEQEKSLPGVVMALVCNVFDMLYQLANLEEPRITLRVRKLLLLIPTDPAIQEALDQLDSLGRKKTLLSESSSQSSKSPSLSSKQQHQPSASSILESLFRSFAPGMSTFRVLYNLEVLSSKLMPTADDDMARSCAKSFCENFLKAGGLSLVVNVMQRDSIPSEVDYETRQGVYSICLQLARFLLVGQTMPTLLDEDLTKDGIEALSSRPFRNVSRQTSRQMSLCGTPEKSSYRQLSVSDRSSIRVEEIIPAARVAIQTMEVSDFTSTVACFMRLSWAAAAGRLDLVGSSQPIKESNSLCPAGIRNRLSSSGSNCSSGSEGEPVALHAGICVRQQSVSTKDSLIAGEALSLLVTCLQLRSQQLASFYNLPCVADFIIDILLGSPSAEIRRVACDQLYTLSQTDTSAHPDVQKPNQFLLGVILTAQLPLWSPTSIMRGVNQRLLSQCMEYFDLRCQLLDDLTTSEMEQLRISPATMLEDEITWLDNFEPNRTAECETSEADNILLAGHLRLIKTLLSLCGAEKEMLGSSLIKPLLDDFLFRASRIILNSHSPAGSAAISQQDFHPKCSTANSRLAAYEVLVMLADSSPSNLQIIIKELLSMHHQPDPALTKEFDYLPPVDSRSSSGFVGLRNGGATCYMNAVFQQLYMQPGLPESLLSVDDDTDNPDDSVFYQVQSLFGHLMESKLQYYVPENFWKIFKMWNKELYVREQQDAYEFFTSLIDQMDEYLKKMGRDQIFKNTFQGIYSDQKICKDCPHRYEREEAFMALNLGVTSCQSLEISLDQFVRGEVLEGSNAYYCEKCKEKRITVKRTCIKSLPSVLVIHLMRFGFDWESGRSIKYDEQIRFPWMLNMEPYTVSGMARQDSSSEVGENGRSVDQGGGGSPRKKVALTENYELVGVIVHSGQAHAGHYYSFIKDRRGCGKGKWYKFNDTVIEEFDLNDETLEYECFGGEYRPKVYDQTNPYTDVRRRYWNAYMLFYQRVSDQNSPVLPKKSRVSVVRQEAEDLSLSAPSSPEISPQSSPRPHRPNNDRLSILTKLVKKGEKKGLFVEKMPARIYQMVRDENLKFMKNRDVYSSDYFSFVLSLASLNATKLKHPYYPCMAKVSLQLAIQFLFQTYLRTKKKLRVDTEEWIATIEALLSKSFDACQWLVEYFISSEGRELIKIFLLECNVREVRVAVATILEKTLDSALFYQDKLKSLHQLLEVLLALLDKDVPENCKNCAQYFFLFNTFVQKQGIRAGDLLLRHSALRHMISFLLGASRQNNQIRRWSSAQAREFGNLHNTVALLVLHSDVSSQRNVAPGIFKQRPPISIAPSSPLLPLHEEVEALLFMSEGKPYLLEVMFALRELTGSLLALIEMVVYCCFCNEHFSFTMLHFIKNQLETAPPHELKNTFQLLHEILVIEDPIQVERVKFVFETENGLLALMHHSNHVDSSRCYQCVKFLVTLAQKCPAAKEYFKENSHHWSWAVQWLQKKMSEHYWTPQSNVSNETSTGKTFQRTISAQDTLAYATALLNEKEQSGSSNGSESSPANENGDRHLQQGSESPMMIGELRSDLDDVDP
Procedure: as §1, §2, §3, §4, §5, §6, §7, §8, §9, §10, §11, §12

[6] = molecular target: T5, UCHL5 (Homo sapiens, UniProt Q9Y5K5); details: for %inhibition UCHL5: crude in-plate synthesized compound, 1.25 µM assuming full conversion; for inhibition at 1.25 µM: individual amine building block (plate NCN-5), read-out: BB %inhibition UCHL5
T5 construct: (1-329); purchased Novus biochemicals NBP1-72315
T5 sequence (Q9Y5K5 1-329): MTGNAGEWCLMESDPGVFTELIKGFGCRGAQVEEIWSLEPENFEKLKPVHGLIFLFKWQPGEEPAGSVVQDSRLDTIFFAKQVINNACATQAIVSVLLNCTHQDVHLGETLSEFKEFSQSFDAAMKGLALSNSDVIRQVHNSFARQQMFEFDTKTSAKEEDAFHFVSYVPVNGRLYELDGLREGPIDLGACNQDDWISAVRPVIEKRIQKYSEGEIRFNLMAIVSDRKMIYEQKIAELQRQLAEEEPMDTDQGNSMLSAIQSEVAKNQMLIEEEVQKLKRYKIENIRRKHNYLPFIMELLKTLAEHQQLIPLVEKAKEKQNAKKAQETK
Procedure: as §1, §2, §3, §4, §5, §6, §7, §8, §9, §10, §11, §12

**Q.** Which results are given for `N#CN1CC[C@@H](NC(=O)c2nc(N3CCCC3)ncc2Cl)C1` [BB01CA90]?
**A.** %inhibition USP16 [1]: 11.4%; %inhibition UCHL3 [2]: 19.3%; %inhibition UCHL1 [3]: 15.1%; %inhibition USP32 [4]: 19.4%; %inhibition USP24 [5]: 0.9%; %inhibition UCHL5 [6]: 6.9%

**Q.** Which “%inhibition USP16” value [1] does the source give for `N#CN1CC[C@@H](NC(=O)C(Cc2c[nH]cn2)NS(=O)(=O)c2ccc(Cl)cc2)C1` (stereo partly drawn) [BB01CA91] here?
**A.** 7.7%

**Q.** What about the “%inhibition UCHL3” value [2] of the same compound?
**A.** 16.3%

**Q.** What about the “%inhibition UCHL1” value [3] of the same compound?
**A.** 11.2%

**Q.** And the “%inhibition USP32” value [4]?
**A.** 22.5%

**Q.** What about the “%inhibition USP24” value [5] of the same compound?
**A.** -0.9%

**Q.** And the “%inhibition UCHL5” value [6]?
**A.** 8.4%

**Q.** How did the “%inhibition USP16” value [1] turn out when `N#CN1CC[C@@H](NC(=O)Cc2csc(-c3cnccn3)n2)C1` [BB01CA92] was run?
**A.** 15.0%

**Q.** What about the “%inhibition UCHL3” value [2] of the same compound?
**A.** 17.1%

**Q.** And the “%inhibition UCHL1” value [3]?
**A.** 8.8%

**Q.** And the “%inhibition USP32” value [4]?
**A.** 21.1%

**Q.** What about the “%inhibition USP24” value [5] of the same compound?
**A.** 3.2%

**Q.** And the “%inhibition UCHL5” value [6]?
**A.** 6.2%

**Q.** How did the “%inhibition USP16” value [1] turn out when `N#CN1CC[C@@H](NC(=O)CCN(Cc2ccccc2)S(=O)(=O)c2c(Cl)cccc2Cl)C1` [BB01CA93] was run?
**A.** 20.5%

**Q.** What about the “%inhibition UCHL3” value [2] of the same compound?
**A.** 16.3%

**Q.** What about the “%inhibition UCHL1” value [3] of the same compound?
**A.** 9.7%

**Q.** What about the “%inhibition USP32” value [4] of the same compound?
**A.** 75.0%

**Q.** What about the “%inhibition USP24” value [5] of the same compound?
**A.** 9.1%

**Q.** What about the “%inhibition UCHL5” value [6] of the same compound?
**A.** 5.2%

**Q.** With `N#CN1CC[C@@H](NC(=O)c2ncoc2-c2cccs2)C1` [BB01CA94] as the compound, how does the “%inhibition USP16” value [1] read?
**A.** 11.4%

**Q.** What about the “%inhibition UCHL3” value [2] of the same compound?
**A.** 16.0%

**Q.** And the “%inhibition UCHL1” value [3]?
**A.** 8.0%

**Q.** And the “%inhibition USP32” value [4]?
**A.** 15.3%

**Q.** And the “%inhibition USP24” value [5]?
**A.** -1.8%

**Q.** And the “%inhibition UCHL5” value [6]?
**A.** 4.4%

**Q.** What does the source list for `N#CN1CC[C@@H](N)C1` [BB1]?
**A.** BB %inhibition USP16 [1]: 7.2%; inhibition at 1.25 µM [2]: 5.9%; inhibition at 1.25 µM [3]: 2.6%; inhibition at 1.25 µM [4]: 9.5%; inhibition at 1.25 µM [5]: 6.1%; inhibition at 1.25 µM [6]: -4.7%

**Q.** For `N#CN1CCC(N)CC1` [BB2], which “BB %inhibition USP16” value [1] is on record?
**A.** 8.1%

**Q.** What about the inhibition at 1.25 µM [2] of the same compound?
**A.** 3.9%

**Q.** And the inhibition at 1.25 µM [3]?
**A.** 4%

**Q.** What about the inhibition at 1.25 µM [4] of the same compound?
**A.** 9%

**Q.** And the inhibition at 1.25 µM [5]?
**A.** 5.5%

**Q.** What about the inhibition at 1.25 µM [6] of the same compound?
**A.** -3.3%

**Q.** `N#CN1CC[C@H](N)C1` [BB3] was tested. Which “BB %inhibition USP16” value [1] did it give?
**A.** 5.8%

**Q.** What about the inhibition at 1.25 µM [2] of the same compound?
**A.** 0.6%

**Q.** What about the inhibition at 1.25 µM [3] of the same compound?
**A.** 1.1%

**Q.** What about the inhibition at 1.25 µM [4] of the same compound?
**A.** 8.4%

**Q.** What about the inhibition at 1.25 µM [5] of the same compound?
**A.** -1.4%

**Q.** What about the inhibition at 1.25 µM [6] of the same compound?
**A.** -5.8%

**Q.** What does the source list for `N#CN1CCC[C@@H](N)C1` [BB4]?
**A.** BB %inhibition USP16 [1]: 5.0%; inhibition at 1.25 µM [2]: 2%; inhibition at 1.25 µM [3]: 3.6%; inhibition at 1.25 µM [4]: 4.7%; inhibition at 1.25 µM [5]: 0.8%; inhibition at 1.25 µM [6]: -6.7%

**Q.** How did the “BB %inhibition USP16” value [1] turn out when `N#CN1CC(N)C1` [BB5] was run?
**A.** 1.2%

**Q.** And the inhibition at 1.25 µM [2]?
**A.** -0.9%

**Q.** What about the inhibition at 1.25 µM [3] of the same compound?
**A.** 3.8%

**Q.** What about the inhibition at 1.25 µM [4] of the same compound?
**A.** 5.3%

**Q.** What about the inhibition at 1.25 µM [5] of the same compound?
**A.** 5%

**Q.** What about the inhibition at 1.25 µM [6] of the same compound?
**A.** 2.9%

**Q.** With `N#CN1C[C@H]2C[C@@H](N)C[C@H]2C1` [BB6] as the compound, how does the “BB %inhibition USP16” value [1] read?
**A.** 0.3%

**Q.** What about the inhibition at 1.25 µM [2] of the same compound?
**A.** -4.7%

**Q.** And the inhibition at 1.25 µM [3]?
**A.** 0.4%

**Q.** And the inhibition at 1.25 µM [4]?
**A.** 6%

**Q.** And the inhibition at 1.25 µM [5]?
**A.** 3.1%

**Q.** What about the inhibition at 1.25 µM [6] of the same compound?
**A.** 2.5%

**Q.** What does the source list for `N#CN1C[C@H]2C[C@H](N)C[C@H]2C1` [BB7]?
**A.** BB %inhibition USP16 [1]: -1.2%; inhibition at 1.25 µM [2]: -7.4%; inhibition at 1.25 µM [3]: 0.7%; inhibition at 1.25 µM [4]: 2.8%; inhibition at 1.25 µM [5]: -3.9%; inhibition at 1.25 µM [6]: -1.4%
